Test results: ChEMBL document CHEMBL3351574, “Antitubercular activity of quinolizidinyl/pyrrolizidinylalkyliminophenazines” (Bioorg Med Chem, 2014)
≈ marks a conversion by molar mass, not a printed value. Where a name gives a salt, the structure may show the parent alone.

Key:
[1] = Cytotoxicity against african green monkey Vero 76 cells assessed as reduction in cell viability after 48 to 96 hrs by MTT method; type: cell-based; details: chlorocebus sabaeus
Mycobacterium avium = type: functional; details: 168 h
[2] = Cytotoxicity against human HMEC1 cells assessed as reduction in cell viability after 72 hrs by MTT method; type: cell-based, HMEC-1
[3] = Cytotoxicity against human MT4 cells assessed as reduction in cell viability after 96 hrs by MTT method; type: cell-based
[4] = Lipophilicity, logD of the compound at pH 7.4; type: physicochemical; details: buffer
in vitro [5] = details: human, HMEC1 cells
Description: Selectivity index, ratio of CC50 for human HMEC1 cells to MIC for Mycobacterium tuberculosis H37Rv

in vitro [6] = details: human, MT4 cells
Description: Selectivity index, ratio of CC50 for human MT4 cells to MIC for Mycobacterium tuberculosis H37Rv

in vitro [7] = details: monkey, Vero 76 cells
Description: Selectivity index, ratio of CC50 for african green monkey Vero 76 cells to MIC for Mycobacterium tuberculosis H37Rv

[8] = tested on: Mycobacterium tuberculosis; assay: microbe, parasite or virus in culture; details: H37Rv, 168 h
Description: Antitubercular activity against Mycobacterium tuberculosis H37Rv after 7 days by REMA resazurin microtiter assay

[9] = tested on: Mycobacterium tuberculosis; assay: microbe, parasite or virus in culture; details: isolate 29/10, 168 h
Description: Antitubercular activity against Mycobacterium tuberculosis isolate 29/10 after 7 days by REMA resazurin microtiter assay

[10] = tested on: Mycobacterium tuberculosis; assay: microbe, parasite or virus in culture; details: isolate 439/11, 168 h
Description: Antitubercular activity against Mycobacterium tuberculosis isolate 439/11 after 7 days by REMA resazurin microtiter assay

[11] = tested on: Mycobacterium tuberculosis; assay: microbe, parasite or virus in culture; details: isolate 756/10, 168 h
Description: Antitubercular activity against Mycobacterium tuberculosis isolate 756/10 after 7 days by REMA resazurin microtiter assay

[12] = tested on: Mycobacterium tuberculosis; assay: microbe, parasite or virus in culture; details: isolate 778/10, 168 h
Description: Antitubercular activity against Mycobacterium tuberculosis isolate 778/10 after 7 days by REMA resazurin microtiter assay

[13] = tested on: Mycobacterium tuberculosis; assay: microbe, parasite or virus in culture; details: isolate 917/10, 168 h
Description: Antitubercular activity against Mycobacterium tuberculosis isolate 917/10 after 7 days by REMA resazurin microtiter assay

[14] = tested on: Mycobacterium tuberculosis; type: functional; details: H37Ra, 168 h
[15] = tested on: Mycobacterium tuberculosis; assay: Antitubercular activity against Mycobacterium tuberculosis; type: functional
[16] = Half life in human; type: ADME, organism-based; details: in vivo

| Structure (SMILES) | MIC (Mycobacterium avium) | CC50 at 72 h [2] | selectivity ratio (in vitro [5]) | MIC [8] | MIC [9] | MIC [10] | MIC [11] | MIC [12] | MIC [13] | MIC [14] | also measured |
| --- | --- | --- | --- | --- | --- | --- | --- | --- | --- | --- | --- |
| Clc1ccc(Nc2cc3nc4ccccc4n(-c4ccc(Cl)cc4)c-3c/c2=N/CC[C@@H]2CCCN3CCCC[C@H]23)cc1 | 3.35 µM | 2.5 µM | 2.98 | 0.84 µM (≈ 0.501 µg/mL) | 0.84 µM (≈ 0.501 µg/mL) | 0.84 µM (≈ 0.501 µg/mL) | 0.84 µM | 0.84 µM (≈ 0.501 µg/mL) | 0.84 µM | – | CC50 [1]: 9 µM; CC50 at 96 h [3]: 1.2 µM; logD ([4]; read-out: logD): 5.52; selectivity ratio (in vitro [6]): 1.43; selectivity ratio (in vitro [7]): 10.7 |
| c1ccc(Nc2cc3nc4ccccc4n(-c4ccccc4)c-3c/c2=N/C[C@@H]2CCCN3CCCC[C@H]23)cc1 | – | – | – | 15.6 µM (≈ 8.01 µg/mL) | – | – | – | – | – | 15.6 µM (≈ 8.01 µg/mL) | – |
| FC(F)(F)c1cccc(NC[C@@H]2CCCN3CCCC[C@H]23)c1 | – | – | – | – | – | – | – | – | – | – | MIC [15]: 2.5 µg/mL (≈ 8 µM) |
| C(=C1c2ccccc2-c2ccccc21)[C@@H]1CCCN2CCCC[C@H]12 | – | – | – | – | – | – | – | – | – | – | MIC [15]: 0.156 µg/mL (≈ 0.495 µM) |
| OC(C[C@@H]1CCCN2CCCC[C@H]12)(c1ccccc1)c1ccc(-c2ccccc2)cc1 (stereo partly specified) | – | – | – | – | – | – | – | – | – | – | MIC [15]: ≤ 1 µg/mL |
| Clc1ccc(Nc2cc3nc4ccccc4n(-c4ccc(Cl)cc4)c-3c/c2=N/CCC23CCCN2CCC3)cc1 | – | 1.5 µM | < 0.06 | – | – | – | – | – | – | – | – |
| CN[C@@H]1[C@H](O[C@H]2[C@H](O[C@H]3[C@H](O)[C@@H](O)[C@H](N=C(N)N)[C@@H](O)[C@@H]3N=C(N)N)O[C@@H](C)[C@]2(O)C=O)O[C@@H](CO)[C@H](O)[C@H]1O [STREPTOMYCIN SULFATE] | – | – | – | 0.69 µM | 0.69 µM | 0.17 µM | 0.69 µM | 0.34 µM | 0.69 µM | – | – |
| NNC(=O)c1ccncc1 [ISONIAZID] | – | – | – | 1.82 µM (≈ 0.25 µg/mL) | 0.91 µM (≈ 0.125 µg/mL) | 1.82 µM (≈ 0.25 µg/mL) | 3.65 µM | 0.91 µM (≈ 0.125 µg/mL) | 1.82 µM | – | – |
| Clc1ccc(Nc2cc3nc4ccccc4n(-c4ccc(Cl)cc4)c-3c/c2=N/CCC[C@H]2CCCN3CCCC[C@H]23)cc1 | 3.28 µM | 3.1 µM | 3.78 | 0.82 µM (≈ 0.501 µg/mL) | 0.82 µM (≈ 0.501 µg/mL) | 0.82 µM (≈ 0.501 µg/mL) | 0.82 µM | 0.82 µM (≈ 0.501 µg/mL) | 0.82 µM | – | CC50 [1]: 9 µM; CC50 at 96 h [3]: 1.5 µM; selectivity ratio (in vitro [6]): 1.83; selectivity ratio (in vitro [7]): 11 |
| Cc1ccc(Nc2cc3nc4ccccc4n(-c4ccc(C)cc4)c-3c/c2=N/C[C@@H]2CCCN3CCCC[C@H]23)cc1.Cl | 26 µM | – | – | 6.5 µM | 0.81 µM | 3.25 µM | > 16 µg/mL | 6.5 µM | 26 µM | 26 µM | – |
| CC(C)/N=c1\cc2n(-c3ccc(Cl)cc3)c3ccccc3nc-2cc1Nc1ccc(Cl)cc1 [CLOFAZIMINE] | 4.23 µM | 18.6 µM | 17.6 | 1.06 µM (≈ 0.502 µg/mL) | 1.06 µM (≈ 0.502 µg/mL) | 1.06 µM (≈ 0.502 µg/mL) | 1.06 µM | 1.06 µM (≈ 0.502 µg/mL) | 1.06 µM | – | CC50 [1]: > 100 µM; half-life [16]: 70 days; CC50 at 96 h [3]: 6.8 µM; logD [4]: 6.36; selectivity ratio (in vitro [6]): 6.41; selectivity ratio (in vitro [7]): > 94 |
| Cl.Clc1ccc(Nc2cc3nc4ccccc4n(-c4ccc(Cl)cc4)c-3c/c2=N/CCC23CCCN2CCC3)cc1 | > 16 µg/mL | – | – | > 16 µM | 0.78 µM | 6.25 µM | > 16 µg/mL | 12.5 µM | > 16 µg/mL | 26 µM | – |
| Clc1cccc(C(C[C@@H]2CCCN3CCCC[C@H]23)c2ccccc2)c1 (stereo partly specified) | – | – | – | – | – | – | – | – | – | – | MIC [15]: ≤ 0.1 µg/mL |
| CC[C@@H](CO)NCCN[C@@H](CC)CO [ETHAMBUTOL] | – | – | – | 14.4 µM (≈ 2.95 µg/mL) | 3.61 µM (≈ 0.738 µg/mL) | 1.8 µM (≈ 0.368 µg/mL) | 14.4 µM | 7.21 µM (≈ 1.47 µg/mL) | 14.4 µM | – | – |
| c1ccc(Nc2cc3nc4ccccc4n(-c4ccccc4)c-3c/c2=N/CC[C@@H]2CCCN3CCCC[C@H]23)cc1 | 15.2 µM | – | – | 7.58 µM (≈ 4 µg/mL) | 1.89 µM (≈ 0.997 µg/mL) | – | – | 1.89 µM (≈ 0.997 µg/mL) | 1.89 µM | 3.79 µM (≈ 2 µg/mL) | – |
| Cc1ccc(NC[C@@H]2CCCN3CCCC[C@H]23)c2c(=O)c3ccccc3sc12 | – | – | – | – | – | – | – | – | – | – | MIC [15]: 1.25 µg/mL (≈ 3.18 µM) |
| c1ccc(Nc2cc3nc4ccccc4n(-c4ccccc4)c-3c/c2=N/CCC[C@@H]2CCCN3CCCC[C@H]23)cc1 | – | 8.3 µM | 1.12 | 7.38 µM (≈ 4 µg/mL) | – | – | – | – | – | 7.38 µM (≈ 4 µg/mL) | CC50 [1]: 36 µM; CC50 at 96 h [3]: 1.6 µM; selectivity ratio (in vitro [6]): 0.22; selectivity ratio (in vitro [7]): 4.88 |
| Cc1c(N)ccc(NC[C@@H]2CCCN3CCCC[C@H]23)c1C | – | – | – | – | – | – | – | – | – | – | MIC [15]: ≤ 0.5 µg/mL |
| c1ccc(Nc2cc3nc4ccccc4n(-c4ccccc4)c-3c/c2=N/CCC23CCCN2CCC3)cc1 [listing 1 of 2 here] | – | 3.2 µM | 3.64 | – | – | – | – | – | – | – | – |
| Cc1ccc(Nc2cc3nc4ccccc4n(-c4ccc(C)cc4)c-3c/c2=N/C[C@@H]2CCCN3CCCC[C@H]23)cc1 | – | 2.6 µM | 0.4 | – | – | – | – | – | – | – | – |
| CO[C@H]1/C=C/O[C@@]2(C)Oc3c(C)c(O)c4c(O)c(c(/C=N/N5CCN(C)CC5)c(O)c4c3C2=O)NC(=O)/C(C)=C\C=C\[C@H](C)[C@H](O)[C@@H](C)[C@@H](O)[C@@H](C)[C@H](OC(C)=O)[C@@H]1C [RIFAMPIN] | – | – | – | 0.3 µM (≈ 0.247 µg/mL) | 0.15 µM (≈ 0.123 µg/mL) | 0.08 µM (≈ 0.0658 µg/mL) | 0.3 µM | 0.15 µM (≈ 0.123 µg/mL) | 0.61 µM | – | – |
| c1ccc(Nc2cc3nc4ccccc4n(-c4ccccc4)c-3c/c2=N/CCC23CCCN2CCC3)cc1 [listing 2 of 2 here] | 28.1 µM | – | – | 0.88 µM (≈ 0.44 µg/mL) | 0.88 µM (≈ 0.44 µg/mL) | 0.88 µM (≈ 0.44 µg/mL) | 28.1 µM | 1.76 µM (≈ 0.879 µg/mL) | 7.04 µM | 3.52 µM (≈ 1.76 µg/mL) | – |
| c1ccc(Nc2cc3nc4ccccc4n(-c4ccccc4)c-3c/c2=N/CCC[C@H]2CCCN3CCCC[C@H]23)cc1 | – | 5.5 µM | 0.74 | 7.38 µM (≈ 4 µg/mL) | – | – | – | – | – | 0.92 µM (≈ 0.498 µg/mL) | CC50 [1]: 9.6 µM; CC50 at 96 h [3]: 5.8 µM; selectivity ratio (in vitro [6]): 0.78; selectivity ratio (in vitro [7]): 1.3 |
| c1ccc(Nc2cc3nc4ccccc4n(-c4ccccc4)c-3c/c2=N/C[C@H]2CCCN3CCCC[C@H]23)cc1 | > 16 µg/mL | – | – | 7.79 µM (≈ 4 µg/mL) | 1.95 µM (≈ 1 µg/mL) | – | – | 1.95 µM (≈ 1 µg/mL) | 1.95 µM | 3.89 µM (≈ 2 µg/mL) | – |
| Clc1ccc(Nc2cc3nc4ccccc4n(-c4ccc(Cl)cc4)c-3c/c2=N/C[C@@H]2CCCN3CCCC[C@H]23)cc1 | 6.87 µM | 4.7 µM | 5.46 | 0.86 µM (≈ 0.501 µg/mL) | 0.86 µM (≈ 0.501 µg/mL) | 0.86 µM (≈ 0.501 µg/mL) | 0.86 µM | 0.86 µM (≈ 0.501 µg/mL) | 0.86 µM | – | CC50 [1]: 68 µM; CC50 at 96 h [3]: 4.5 µM; logD ([4]; read-out: logD): 5.54; selectivity ratio (in vitro [6]): 5.23; selectivity ratio (in vitro [7]): 79.1 |
| c1ccc(Nc2cc3nc4ccccc4n(-c4ccccc4)c-3c/c2=N/CC[C@H]2CCCN3CCCC[C@H]23)cc1 | – | – | – | 7.58 µM (≈ 4 µg/mL) | – | – | – | – | – | 7.58 µM (≈ 4 µg/mL) | – |
| Clc1ccc(Nc2cc3nc4ccccc4n(-c4ccc(Cl)cc4)c-3c/c2=N/CC[C@H]2CCCN3CCCC[C@H]23)cc1 | 3.35 µM | 2.3 µM | 2.74 | 0.84 µM (≈ 0.501 µg/mL) | 0.84 µM (≈ 0.501 µg/mL) | 0.84 µM (≈ 0.501 µg/mL) | 0.84 µM | 0.84 µM (≈ 0.501 µg/mL) | 0.84 µM | – | CC50 [1]: 9.5 µM; CC50 at 96 h [3]: 1.8 µM; selectivity ratio (in vitro [6]): 2.14; selectivity ratio (in vitro [7]): 11.3 |
